By LD50 is commonly meant the dose at which mortality reaches 50%. Read a low LD50 as greater toxicity.

This is an account of results in patent publication US4132787A, “Pharmaceutical compositions containing a gamma-resorcylic acid derivative in the treatment of thrombosis” (Science Union et Cie, priority 1975, dated 1979).

For data set [1], the system named is fibrinolytic activity. Nature of the data set: fibrinolytic activity in male rats after P.O. administration. In kind it is in vivo. To be noted: 25 mg/kg P.O. Here is the method: The fibrinolytic activity was determined on a batch of 7 male rats after administration of 25 mg/kg P.O. of compound I. It was observed that the fibrinolytic activity increases respectively of 14 and 11%, 60 and 90 minutes after the administration of the product. The return to basis values takes place 3 hours after this administration.

In data set [2] the test system is erythrocytes from rabbit. Nature of the data set: aggregation of erythrocytes induced by Dextran, in vitro, rabbit erythrocytes. In kind it is cell-based. To be noted: at 0.001 and 0.002 molar. An excerpt: (§1) The inhibiting action of compound I on the aggregation of erythrocytes induced by Dextran was evidenced in vitro on erythrocytes from human, dog and rabbit, according to the method of Von Kaulla K.N., ArzneimittelForschung, Drug Research 25 (2) 152-155 (1975).

Data set [3] relates to anti-thrombin III. Description: fibrinolytic inhibitors: anti-thrombin III titrated by radial immuno-diffusion in standard plasma. In kind it is biochemical. To be noted: one hour at 37° C. Here is the method: (§2) The main inhibitors of anti-plasminic type, viz. α2 -macroglobulins, α1 -anti-trypsins and anti-thrombin III were titrated according to the radial immuno-diffusion techniques.
(§3) Three concentrations of compound I were incorporated to a pool of standard plasma and incubated for one hour at 37° C. At non-lytic doses by deficiency (suspended standard clots) the compound I gives a decrease of about 10% of α2 -macroglobulins level, a decrease of about 20% of α1 -anti-trypsins level and a decrease of about 10% of anti-thrombin III level.

Data set [4] deals with α2 -macroglobulins. Nature of the data set: fibrinolytic inhibitors: α2-macroglobulins titrated by radial immuno-diffusion in standard plasma. In kind it is biochemical. The following applies: one hour at 37° C. Here is the method: as §2, §3
In data set [5] the test system is fibrinogen. Description: fibrinogen level in standard plasma incubated with compound I. To be noted: non-lytic doses by excess (high concentrations). In kind it is biochemical.
Data set [6] concerns erythrocytes from human. Nature of the data set: aggregation of erythrocytes induced by Dextran, in vitro, human erythrocytes. In kind it is cell-based. To be noted: at 0.001 and 0.002 molar.
Description: as §1

For data set [7], the system named is erythrocytes from dog. Nature of the data set: aggregation of erythrocytes induced by Dextran, in vitro, dog erythrocytes. In kind it is cell-based. The following applies: at 0.001 and 0.002 molar.
Description: as §1

Data set [8] relates to α1 -anti-trypsins. Description: fibrinolytic inhibitors: α1-anti-trypsins titrated by radial immuno-diffusion in standard plasma. In kind it is biochemical. The following applies: one hour at 37° C. How it is done: as §2, §3
The test system of data set [9] is monomers of fibrin. Description: level of monomers of fibrin in the rabbit after I.V. administration. In kind it is in vivo. To be noted: 5 mg/kg I.V. An excerpt: This decrease reaches 23%, ten minutes after the injection.
The test system of data set [10] is plasmatic clot. Description: retraction of plasmatic clot in vitro. The following applies: concentrations ≥ 1,79 mg/ml of plasma, 60 minutes. In kind it is biochemical. Here is the method:
The inhibiting action of compound I on the retraction of plasmatic clot was evidenced in vitro. At the concentrations ≥ 1,79 mg/ml of plasma, the compound I inhibits totally (100%) the normal retraction of the clot measured for a lapse of 60 minutes.

Data set [11] deals with platelet stickiness. Nature of the data set: platelet stickiness, Salzman method, in the rabbit. In kind it is in vivo. To be noted: 50 mg/kg P.O., 4 hours after administration. Here is the method:
By using the Salzman method, J. Lab. Clin. Med. 62, 724 (1963), it was observed that the compound I decreases by 20% the platelet stickiness, 4 hours after the administration of 50 mg/kg P.O. of the product in the rabbit.

A short description of data set [12]: toxicity (LD50) in mice, I.V. and P.O. The following applies: mouse, in vivo.

As to `CCCCCc1cc(O)c(C(=O)O)c(O)c1` [compound I, 4-n-pentyl-6-hydroxy salicylic acid], the “return of fibrinolytic activity to basis values, time after administration” value in data set [1] stood at 3 h. Moreover, the “increase of fibrinolytic activity” value was found to be 14% in data set [1] (60 minutes after administration) and 11% in [1] (90 minutes after administration). Moreover, the “inhibition of the aggregation of erythrocytes induced by Dextran” value in data set [2], in data set [6] and in data set [7] was 100% in each case. Moreover, the “decrease of anti-thrombin III level” value in data set [3] (lytic doses) is 50%; in data set [3] (non-lytic doses by deficiency), “about 10%”. Further, the “decrease of α2 -macroglobulins level” value is given as “about 20%” in [4] (lytic doses) and “about 10%” in data set [4] (non-lytic doses by deficiency). Moreover, the fibrinogen level result in data set [5] is recorded as “important decrease”. Besides, the “decrease of α1 anti-trypsins level” value in data set [8] (lytic doses) was 80%. In addition, the “decrease of α1 -anti-trypsins level” value in [8] (non-lytic doses by deficiency) is given as “about 20%”. Further, the figures for the “decrease of the level of monomers of fibrin” value in data set [9] (ten minutes after injection) and in data set [9] (two minutes after injection) were 23% and 10%, respectively. Also, the “inhibition of the normal retraction of the clot” value in [10] stood at 100%. In addition, the “decrease of platelet stickiness” value in [11] is given as 20%. The 50% lethal dose (LD50) in data set [12] (iv, I.V.) lay in the range of 50 to 100 mg/kg; in data set [12] (po, P.O.), 1000 to 1500 mg/kg.
